# Measurements: patent US20060073589A1, “Rapid generation of activated mononuclear antigen presenting cells from monocytes” (priority 2002, published 2006)
# *1 amine or outer side, *2 acyl side, *3 side chain or, on linkers, in order; H or OH if unused. Where a SMILES comes first, the peptide text is derived from it. Bridges are numbered along the chain shown (N, C = ends). Roman numbers before positions name the chains, in order. [ ]: non-standard residue; d: D form. Actinocin(9to1) = Cc1c2oc3c(C)ccc(C(=O)[*:1])c3nc-2c(C(=O)[*:2])c(N)c1=O; NMeV = CN[C@H](C(=O)O)C(C)C; Sar = CNCC(=O)O
# Test system: CD83 expression on the cell membrane of monocytes
# Experiment: CD83 surface expression on monocytes cultured with metabolic inhibitors
# Assay type: cell-based, human
# Conditions: 4 h monocyte culture, inhibitor added at beginning; actinomycin D 100 ng/ml, cyclohexamide 100 μM, brefeldin A 5 μg/ml
# Protocol: The dotted line indicates the FACS profile of cells stained with isotype control mAb. The data are representative of three independent experiments.
# Cells were washed and resuspended in PBS containing 1% human serum and incubated with fluorochrome-conjugated mAbs for 30 min at 4° C. The following mAbs were used for immunofluorescent staining: anti-CD14, CD80, CD4, CD25, CD54, HLA-DR (Becton Dickinson, San Jose Calif.), CD40, CD86, CD83, CD1a, CD62L, HLA A-B-C, ManR, CD58, LFA-1, CD32 (Pharmingen, San Diego, Calif.), CD2 (clone SFCI3Pt2H9; Beckman Coulter, Fullerton, Calif.), CD33 (Immunotech). Samples were collected and analysed by using a FACSort (Becton Dickinson) and data analysis was performed by CellQuest software (Becton Dickinson). Cells were electronically gated according to light scatter properties, in order to exclude cell debris and contaminating lymphocytes.
# The CD83 surface expression in cells cultured in the presence of various metabolic inhibitors added at the beginning of the culture was examined.
row,Compound,inhibition of up-regulation of CD83 expression on the cell membrane
1,"Cc1c2oc3c(C)ccc(C(=O)N[C@@H]4C(=O)N[C@H](C(C)C)C(=O)N5CCC[C@H]5C(=O)N(C)CC(=O)N(C)[C@@H](C(C)C)C(=O)O[C@@H]4C)c3nc-2c(C(=O)N[C@@H]2C(=O)N[C@H](C(C)C)C(=O)N3CCC[C@H]3C(=O)N(C)CC(=O)N(C)[C@@H](C(C)C)C(=O)O[C@@H]2C)c(N)c1=O [actinomycin D] (I: T[dV]P[Sar][NMeV] / II: T[dV]P[Sar][NMeV]; ester I:1-I:C, II:1-II:C; linker I:N-II:N via Actinocin(9to1))",not significantly inhibited
2,C[C@H]1CCC/C=C/[C@@H]2C[C@H](O)C[C@H]2[C@H](O)/C=C/C(=O)O1 [brefeldin A],completely blocked
3,C[C@@H]1C[C@@H]([C@H](O)CC2CC(=O)NC(=O)C2)C(=O)[C@@H](C)C1 [cyclohexamide],completely blocked
